“And” between values parts separate entries of the source, which are not always exact repeats. Equal entries are not always repeated. Toxic doses and inconclusive results are not listed.
Tested on: nude mice, LOX melanoma ip, survival T/C
Assay: NCI In Vivo Anticancer Drug Screen. Data for tumor model Human Amelanotic Melanoma (LOX) (intraperitoneal) in NU/NU BALB/C (nude) mice
Conditions: endpoint: median survival time, schedule: Q04DX003 (ip), higher = longer survival
Method: The antitumor activity of compounds was measured in mice bearing transplantable tumors. Survival or tumor size were measured and the results are expressed as the measurement made in the treated group (T) divided by the measurement made in the vehicle treated control group (C). The tumor model used in this assay is Human Amelanotic Melanoma (LOX) (intraperitoneal) in NU/NU BALB/C (nude) mice

[1] = dose: 6.25 mg/kg/injection, vehicle: saline with Tween-80
[2] = dose: 12.5 mg/kg/injection, vehicle: saline with Tween-80
[3] = dose: 25.0 mg/kg/injection, vehicle: saline with Tween-80
[4] = dose: 100.0 mg/kg/injection, vehicle: saline with Tween-80
[5] = dose: 25.0 mg/kg/injection, vehicle: Klucel (hydroxypropylcellulose) (HPC)
[6] = dose: 50.0 mg/kg/injection, vehicle: Klucel (hydroxypropylcellulose) (HPC)
[7] = dose: 75.0 mg/kg/injection, vehicle: saline
[8] = dose: 150.0 mg/kg/injection, vehicle: saline

CCOC(=O)Nc1cc2c(c(N)n1)N=C(c1ccccc1)CN2
T/C (dose: 0.94 mg/kg/injection, vehicle: saline with Tween-80): 103 % of control
T/C (dose: 1.88 mg/kg/injection, vehicle: saline with Tween-80): 107 % of control
T/C (dose: 3.75 mg/kg/injection, vehicle: saline with Tween-80): 119 % of control
T/C (dose: 7.5 mg/kg/injection, vehicle: saline with Tween-80): 121 % of control

CC(C)N1C(=O)N(Cl)C2C1N(Cl)C(=O)N2Cl (stereo not drawn)
T/C [1]: 103 % of control and 88 % of control
T/C [2]: 102 % of control and 88 % of control
T/C [3]: 109 % of control and 98 % of control
T/C (dose: 50.0 mg/kg/injection, vehicle: saline with Tween-80): 107 % of control and 121 % of control
T/C [4]: 102 % of control and 120 % of control

[N-]=[N+]=[N-]
T/C (dose: 1.5 mg/kg/injection, vehicle: water): 99 % of control
T/C (dose: 3.0 mg/kg/injection, vehicle: water): 104 % of control
T/C (dose: 12.0 mg/kg/injection, vehicle: water): 89 % of control
T/C (dose: 24.0 mg/kg/injection, vehicle: water): 104 % of control

S=C(N/N=C1/CCCC/C1=N/NC(=S)N1CCOCC1)N1CCOCC1
T/C (dose: 3.13 mg/kg/injection, vehicle: saline with Tween-80): 116 % of control
T/C [1]: 117 % of control
T/C [2]: 110 % of control

Cc1ccc(C2=CSC3=NCCN23)cc1Cl
T/C (dose: 12.5 mg/kg/injection, vehicle: Klucel (hydroxypropylcellulose) (HPC)): 97 % of control
T/C [5]: 96 % of control
T/C [6]: 101 % of control

CC1=CC=CC(C)(C)C(O)C1=O (stereo not drawn)
T/C (dose: 18.75 mg/kg/injection, vehicle: Klucel (hydroxypropylcellulose) (HPC)): 98 % of control
T/C (dose: 37.5 mg/kg/injection, vehicle: Klucel (hydroxypropylcellulose) (HPC)): 94 % of control
T/C (dose: 75.0 mg/kg/injection, vehicle: Klucel (hydroxypropylcellulose) (HPC)): 98 % of control
T/C (dose: 150.0 mg/kg/injection, vehicle: Klucel (hydroxypropylcellulose) (HPC)): 98 % of control
T/C (dose: 300.0 mg/kg/injection, vehicle: Klucel (hydroxypropylcellulose) (HPC)): 93 % of control

c1cn[nH]c1
T/C [7]: 109 % of control
T/C [8]: 107 % of control

OCC(O)C(O)C(O)C(O)CO (stereo not drawn)
T/C [7]: 97 % of control
T/C [8]: 102 % of control
T/C (dose: 300.0 mg/kg/injection, vehicle: saline): 97 % of control
T/C (dose: 600.0 mg/kg/injection, vehicle: saline): 106 % of control
T/C (dose: 1200.0 mg/kg/injection, vehicle: saline): 104 % of control

CC1OC(O[C@H]2/C=C/C=C/C=C/C=C/C=C/C=C/C=C/[C@H](C)[C@@H](O)[C@@H](C)[C@H](C)OC(=O)C[C@H](O)C[C@H](O)CC[C@@H](O)[C@H](O)C[C@H](O)C[C@]3(O)C[C@H](O)[C@@H](C(=O)O)[C@H](C2)O3)C(O)C(N)C1O (stereo partly drawn)
T/C (dose: 12.5 mg/kg/injection, vehicle: saline + Tween-80 + alcohol): 110 % of control
T/C (dose: 25.0 mg/kg/injection, vehicle: saline + Tween-80 + alcohol): 107 % of control

CC(C)(C)NC(C1=CC(C)(C)c2ccccc2C1=O)c1ccccc1 (stereo not drawn)
T/C [5]: 107 % of control
T/C [6]: 113 % of control
T/C (dose: 100.0 mg/kg/injection, vehicle: Klucel (hydroxypropylcellulose) (HPC)): 110 % of control
T/C (dose: 200.0 mg/kg/injection, vehicle: Klucel (hydroxypropylcellulose) (HPC)): 118 % of control

CC(=O)/C(=C\c1ccc(Cl)c(Cl)c1)C(=O)CCN(C)C
T/C (dose: 6.25 mg/kg/injection, vehicle: suspension in saline): 96 % of control
T/C (dose: 12.5 mg/kg/injection, vehicle: suspension in saline): 102 % of control
T/C (dose: 25.0 mg/kg/injection, vehicle: suspension in saline): 96 % of control
T/C (dose: 50.0 mg/kg/injection, vehicle: suspension in saline): 86 % of control
T/C (dose: 100.0 mg/kg/injection, vehicle: suspension in saline): 122 % of control

Oc1cccc2ccccc12
T/C (dose: 18.75 mg/kg/injection, vehicle: water): 98 % of control
T/C (dose: 37.5 mg/kg/injection, vehicle: water): 102 % of control
T/C (dose: 75.0 mg/kg/injection, vehicle: water): 106 % of control
T/C (dose: 150.0 mg/kg/injection, vehicle: water): 102 % of control

COc1cc2c(c(OC)c1OC)-c1ccc(OC)c(=O)cc1[C@@H](N)CC2
T/C (dose: 3.75 mg/kg/injection, vehicle: Klucel (hydroxypropylcellulose) (HPC)): 102 % of control
T/C (dose: 7.5 mg/kg/injection, vehicle: Klucel (hydroxypropylcellulose) (HPC)): 104 % of control
T/C (dose: 15.0 mg/kg/injection, vehicle: Klucel (hydroxypropylcellulose) (HPC)): 108 % of control and 113 % of control and 116 % of control
T/C (dose: 30.0 mg/kg/injection, vehicle: Klucel (hydroxypropylcellulose) (HPC)): 113 % of control and 114 % of control and 115 % of control
T/C (dose: 60.0 mg/kg/injection, vehicle: Klucel (hydroxypropylcellulose) (HPC)): 114 % of control
T/C (dose: 120.0 mg/kg/injection, vehicle: Klucel (hydroxypropylcellulose) (HPC)): 163 % of control

O=C(O)Cc1cccc(=O)c(O)c1C(=O)O
T/C (dose: 75.0 mg/kg/injection, vehicle: saline with Tween-80): 97 % of control
T/C (dose: 150.0 mg/kg/injection, vehicle: saline with Tween-80): 94 % of control

CC(/C=C/C=C/C=C/C=C/C=C/C(O)=C1/C(=O)C(CCC(=O)O)N(C)C1=O)=C\C(C)C(OC1CC(O)C(O)C(C)O1)C(C)C (stereo not drawn)
T/C (dose: 8.3 mg/kg/injection, vehicle: water): 114 % of control
T/C (dose: 13.8 mg/kg/injection, vehicle: water): 114 % of control
T/C (dose: 16.0 mg/kg/injection, vehicle: water): 150 % of control
T/C (dose: 32.0 mg/kg/injection, vehicle: water): 168 % of control
T/C (dose: 107.0 mg/kg/injection, vehicle: water): 116 % of control

COc1ccc(O)cc1
T/C [4]: 124 % of control
T/C (dose: 200.0 mg/kg/injection, vehicle: saline with Tween-80): 102 % of control

NC(Cc1ccccc1)C(=O)OCN1C(=O)C2C3C=CC(C2C1=O)C1C2C(=O)N(COC(=O)C(N)Cc4ccccc4)C(=O)C2C31 (stereo not drawn)
T/C (dose: 25.0 mg/kg/injection, vehicle: water): 105 % of control
T/C (dose: 50.0 mg/kg/injection, vehicle: water): 109 % of control
T/C (dose: 100.0 mg/kg/injection, vehicle: water): 107 % of control
T/C (dose: 200.0 mg/kg/injection, vehicle: water): 116 % of control

COC1=CCC23C(=O)C=CC(=O)C2(C1)C(=O)c1ccccc1C3=O (stereo not drawn)
T/C [1]: 101 % of control
T/C [2]: 100 % of control
T/C [3]: 94 % of control

From PubChem BioAssay AID280 (DTP/NCI, 2004)
